Consider 28 compounds from US6201006A, “Aromatic amidine derivatives useful as selective thrombin inhibitors” (C & C Research Laboratories, priority 1996, dated 2001).

The test deals with T1, human thrombin (Homo sapiens, UniProt P00734).
T1 construct: purchased Sigma T-6759
The test can be described thus: Inhibitory activity for thrombin (chromogenic substrate hydrolysis, 405 nm). Type of test: biochemical. The settings on record: for IC50: human thrombin, 20 min, pH 8.0, N-benzoyl-Phe-Val-Arg-p-nitroanilide; for Selectivity (trypsin/thrombin): IC50 for trypsin divided by IC50 for thrombin. As for the experimental part:
20 μl of each compound of the present invention was dissolved in 50% methanol in various concentrations and then added to each well of a microplate, to each of which 160 μl of the reaction medium containing 125 mM NaCl, 50 mM Tris-HCl (pH 8.0) and 2 mM synthetic substrate (N-benzoyl-Phe-Val-Arg-p-nitroanilide, Sigma B-7632) were added. 20 μl of human thrombin solution (5 units/ml, Sigma T-6759, manufactured by Sigma Co.) containing 0.1% bovine serum albumin was added to each well to initiate the enzymatic reaction. After 20 minutes, the hydrolysis of substrate was determined by measuring the absorbance at 405 nm. […] The selectivity index was calculated by dividing the IC50 value for trypsin by the IC50 value for thrombin. The thrombin inhibitory activity and the trypsin inhibitory activity for the compound of the present invention are shown in the following Table 2.

Each structure is given as a SMILES string.

Turning to `CCn1c(CC[C@@H]2CCCN2C(=O)[C@H]2CCC(=O)N2CC(N)=O)cc2ccc(C(=N)N)cc21` [Compound 187, 1-ethyl-2-[2-[(S)-1-[[(R)-1-(carbamoylmethyl)-5-oxo-pyrrolidin-2-yl]carbonyl]pyrrolidin-2-yl]ethyl]indole-6-carboxamidine], the IC50 (usually the concentration at which inhibition is half-maximal) is 25.6 nM. `CCOC(=O)CN1CCC[C@@H]1C(=O)N1CCC[C@H]1CCc1cc2ccc(C(=N)N)cc2n1C` [Compound 84, ethyl 2-[(R)-2-[[(S)-2-[2-(6-amidino-1-methylindol-2-yl)ethyl]pyrrolidinyl]carbonyl]pyrrolidinyl]acetate]: the “Selectivity (trypsin/thrombin)” value is reported as 87.0 and the IC50 worked out at 51.6 nM. Take `CC(=O)N1CCC[C@@H]1C(=O)N1CCC[C@H]1CCc1cc2ccc(C(=N)N)cc2n1CC(N)=O` [Compound 224, 2-[2-[(S)-1-[((R)-1-acetylpyrrolidin-2-yl)carbonyl]pyrrolidin-2-yl]ethyl]-1-(carbamoylmethyl)indole-6-carboxamidine]: half-maximal inhibition (IC50) was put at 24.1 nM. On the same count and under the same terms, the figure for `CCn1c(CC[C@@H]2CCCN2C(=O)[C@H]2CCCN2C(=O)C2CCCNC2)cc2ccc(C(=N)N)cc21` (stereo partly drawn) [Compound 168, 1-ethyl-2-[2-[(S)-1-[[(R)-1-(3-piperidinylcarbonyl)pyrrolidin-2-yl]carbonyl]pyrrolidin-2-yl]ethyl]indole-6-carboxamidine] is 31.6 nM; for `CCn1c(CC[C@@H]2CCCN2C(=O)[C@H]2CCCN2C(=O)CNC)cc2ccc(C(=N)N)cc21` [Compound 142, 1-ethyl-2-[2-[(S)-1-[[(R)-1-[2-(methylamino)acetyl]pyrrolidin-2-yl]carbonyl]pyrrolidin-2-yl]ethyl]indole-6-carboxamidine] it is 33.1 nM; for `CCn1c(CC[C@@H]2CCCN2C(=O)C(CC(=O)O)NC2CC2)cc2ccc(C(=N)N)cc21` (stereo partly drawn) [Compound 73, 4-[(S)-2-[2-(6-amidino-1-ethylindol-2-yl)ethyl]pyrrolidinyl]-3-cyclopropylamino-4-oxobutanoic acid] it is 33.2 nM. As to `CCOC(=O)C1CCCN1CC(=O)N1CCC[C@H]1CCc1cc2ccc(C(=N)N)cc2n1CC` (stereo partly drawn) [Compound 196, ethyl 1-[2-[(S)-2-[2-(6-amidino-1-ethylindol-2-yl)ethyl]pyrrolidinyl]-2-oxoethyl]pyrrolidine-2-carboxylate], the “Selectivity (trypsin/thrombin)” value is reported as 14.4 and the IC50 turned out to be 37.2 nM. Turning to `CCn1c(CC[C@@H]2CCCN2C(=O)[C@H]2CCCN2CCCCCC(=O)O)cc2ccc(C(=N)N)cc21` [Compound 131, 6-[(R)-2-[[(S)-2-[2-(6-amidino-1-ethylindol-2-yl)-ethyl]pyrrolidinyl]carbonyl]pyrrolidinyl]hexanoic acid], the “Selectivity (trypsin/thrombin)” value amounted to 14.7 and the IC50 worked out at 9.29 nM. Consider `CCn1c(CC[C@@H]2CCCN2C(=O)Cc2ccccc2C(=O)O)cc2ccc(C(=N)N)cc21` [Compound 24, 2-[2-[(S)-2-[2-(6-amidino-1-ethylindol-2-yl)ethyl]pyrrolidinyl]-2-oxoethyl]benzoic acid], for which the “Selectivity (trypsin/thrombin)” value was 83.6 and the IC50 was determined as 8.45 nM. The like results for `CCOC(=O)CN(CC(=O)N1CCC[C@H]1CCc1cc2ccc(C(=N)N)cc2n1CC)C1CC1` [Compound 62, ethyl 2-[[2-[(S)-2-[2-(6-amidino-1-ethylindol-2-yl)ethyl]pyrrolidinyl]-2-oxoethyl]cyclopropylamino]acetate] were, in that order, 49.7 and 11.7 nM. For the compound `CCn1c(CC[C@@H]2CCCN2C(=O)[C@H]2CCCN2C(=O)C[C@H](NS(C)(=O)=O)C(=O)O)cc2ccc(C(=N)N)cc21` [Compound 163, 4-[(R)-2-[[(S)-2-[2-(6-amidino-1-ethylindol-2-yl)ethyl]pyrrolidinyl]carbonyl]pyrrolidinyl]-(S)-2-[(methanesulfonyl)amino]-4-oxobutanoic acid], the “Selectivity (trypsin/thrombin)” value is listed as 25.6 and the IC50 worked out at 19.4 nM. The compound `CCn1c(CC[C@H]2C[C@H](C)CN2C(=O)[C@H]2CCCN2CC(=O)O)cc2ccc(C(=N)N)cc21` [Compound 98, 2-[(R)-2-[[(S)-2-[2-(6-amidino-1-ethylindol-2-yl)ethyl]-(S)-4-methylpyrrolidinyl]carbonyl]pyrrolidinyl]acetic acid] had an IC50 of 20.3 nM.

As for `CCOC(=O)C(C)N1CCC[C@@H]1C(=O)N1CCC[C@H]1CCc1cc2ccc(C(=N)N)cc2n1CC` (stereo partly drawn) [Compound 109, ethyl-2-[(R)-2-[[(S)-2-[2-(6-amidino-1-ethylindol-2-yl)ethyl]pyrrolidinyl]carbonyl]pyrrolidinyl]propionate], the IC50 turned out to be 31.9 nM. On the same count and under the same terms, the value for `CCOC(=O)CCCCCN1CCC[C@@H]1C(=O)N1CCC[C@H]1CCc1cc2ccc(C(=N)N)cc2n1CC` [Compound 130, ethyl 6-[(R)-2-[[(S)-2-[2-(6-amidino-1-ethylindol-2-yl)-ethyl]pyrrolidinyl]carbonyl]pyrrolidinyl]hexanoate] was 36.5 nM. Regarding `CCOC(=O)CC(NC1CC1)C(=O)N1CCC[C@H]1CCc1cc2ccc(C(=N)N)cc2n1CC` (stereo partly drawn) [Compound 72, ethyl 4-[(S)-2-[2-(6-amidino-1-ethylindol-2-yl)ethyl]pyrrolidinyl]-3-cyclopropylamino-4-oxobutanoate], the “Selectivity (trypsin/thrombin)” value came to 13.6 and inhibition was half-maximal at 9.4 nM (IC50). In turn, `CCn1c(CC[C@@H]2CCCN2C(=O)C2CCCNC2)cc2ccc(C(=N)N)cc21` (stereo partly drawn) [Compound 194, 1-ethyl-2-[2-[(S)-1-[(3-piperidinyl)carbonyl]pyrrolidin-2-yl]ethyl]indole-6-carboxamidine] gave an IC50 of 31.7 nM. The same measure, in the same setting: the value for `CCn1c(CC[C@@H]2CCCN2C(=O)CNC2CC2)cc2ccc(C(=N)N)cc21` [Compound 57, 1-ethyl-2-[2-[(S)-1-(2-cyclopropylaminoacetyl)pyrrolidin-2-yl]ethyl]indole-6-carboxamidine] was 7.73 nM. On the same count and under the same terms, the figure for `CCn1c(CC[C@@H]2CCCN2C(=O)[C@H]2CCCN2)cc2ccc(C(=N)N)cc21` [Compound 83] is 30.9 nM; for `CCn1c(CC[C@@H]2CCCN2C(=O)[C@H]2CCCN2C(=O)CC(N)=O)cc2ccc(C(=N)N)cc21` [Compound 175, 1-ethyl-2-[2-[(S)-1-[[(R)-1-(2-carbamoylacetyl)pyrrolidin-2-yl]carbonyl]pyrrolidin-2-yl]ethyl]indole-6-carboxamidine] it is 9.92 nM. For `CCn1c(CC[C@@H]2CCCN2C(=O)[C@H]2CCCN2C(=O)[C@@H](N)C(C)C)cc2ccc(C(=N)N)cc21` [Compound 145, 1-ethyl-2-[2-[(S)-1-[[(R)-1-((S)-2-amino-3-methylbutanoyl)pyrrolidin-2-yl]carbonyl]pyrrolidin-2-yl]-ethyl]indole-6-carboxamidine], the “Selectivity (trypsin/thrombin)” value turned out to be 20.1 and it took 26.1 nM to reach half-maximal inhibition (IC50). On to `CCn1c(CC[C@@H]2CCCN2C(=O)[C@H]2CCCN2C(=O)CCNS(C)(=O)=O)cc2ccc(C(=N)N)cc21` [Compound 158, 1-ethyl-2-[2-[(S)-1-[[(R)-1-[3-[(methanesulfonyl)amino]propanoyl]pyrrolidin-2-yl]carbonyl]pyrrolidin-2-yl]ethyl]indole-6-carboxamidine], for which the IC50 was 5.5 nM. On the same count and under the same terms, the figure for `CCOC(=O)C(c1ccccc1)N1CCC[C@@H]1C(=O)N1CCC[C@H]1CCc1cc2ccc(C(=N)N)cc2n1CC` (stereo partly drawn) [Compound 112, ethyl-2-[(R)-2-[[(S)-2-[2-(6-amidino-1-ethylindol-2-yl)ethyl]pyrrolidinyl]carbonyl]pyrrolidinyl]-2-phenylacetate] is 29.2 nM. The same measure, in the same setting: the value for `CCn1c(CCC2CCCN2C(=O)C2CCCN2C(CC(=O)O)C(=O)O)cc2ccc(C(=N)N)cc21` [Compound 123, 1-[(R)-2-[[(S)-2-[2-(6-amidino-1-ethyl-indol-2-yl)ethyl]pyrrolidinyl]carbonyl]pyrrolidinyl]ethane-1,2-dicarboxylic acid] was 32.9 nM. In the case of `CCOC(=O)CC(=O)N1CCC[C@@H]1C(=O)N1CCC[C@H]1CCc1cc2ccc(C(=N)N)cc2n1CC` [Compound 174, ethyl 3-[(R)-2-[[(S)-2-[2-(6-amidino-1-ethylindol-2-yl)ethyl]pyrrolidinyl]carbonyl]pyrrolidinyl]-3-oxopropanoate], the “Selectivity (trypsin/thrombin)” value stood at 25.7 and the IC50 was 16.2 nM.

As to `CCn1c(CC[C@@H]2CCCN2C(=O)[C@H](NCC(N)=O)c2ccccc2)cc2ccc(C(=N)N)cc21` [Compound 39, 1ethyl-2-[2-[(S)-1-[(R)-2-(carbamoylmethylamino)-2-phenylacetyl]pyrrolidin-2-yl]ethyl]indole-6-carboxamidine], the IC50 was determined as 6.91 nM. The same measure, in the same setting: the value for `CCOC(=O)CCCCN1CCC[C@@H]1C(=O)N1CCC[C@H]1CCc1cc2ccc(C(=N)N)cc2n1CC` [Compound 128, ethyl 5-[(R)-2-[[(S)-2-[2-(6-amidino-1-ethylindol-2-yl)ethyl]pyrrolidinyl]carbonyl]pyrrolidinyl]pentanoate] was 26.2 nM. `CCn1c(CC[C@@H]2CCCN2C(=O)CC2CCCC2)cc2ccc(C(=N)N)cc21` [Compound 43, 1ethyl-2-[2-[(S)-1-(2-cyclopentylacetyl)pyrrolidin-2-yl]ethyl]indole-6-carboxamidine]: the “Selectivity (trypsin/thrombin)” value was 40.3 and the IC50 stood at 9.96 nM. The like results for `CCOC(=O)CN(C1CC1)C(C)C(=O)N1CCC[C@H]1CCc1cc2ccc(C(=N)N)cc2n1CC` (stereo partly drawn) [Compound 64, ethyl 2-[[2-[(S)-2-[2-(6-amidino-1-ethylindol-2-yl)ethyl]pyrrolidinyl]-1-methyl-2-oxoethyl]cyclo-propylamino]acetate] were, in that order, 22.9 and 15.2 nM.
